In US11692194B2, “Modulating expression of polypeptides via new gene switch expression systems” (Precigen, Inc., priority 2017, dated 2023):

Key:
[1] = tested on: RTS-mbIL-15 in CD19 CAR T cells; test: Western blot of mbIL-15 expression; type: cell-based, human; conditions: CD19 CAR+RTS-mbIL-15 cells, veledimex 2-3 days after four rounds of stimulation
Method: PBMC were nucleofected with plasmids of Sleeping Beauty system to express CD19-specific CAR under constitutive promoter (CD19 CAR alone), or CD19-specific CAR and mbIL-15 both under constitutive promoters (CD19 CAR+constitutive-mbIL-15) or CD19-specific CAR under constitutive promoter and RTS-mbIL-15 (CD19 CAR+RTS-mbIL-15). Nucleofected cells were cultured in presence of AaPC as described in Example 1.
After four rounds of stimulations, cells were cultured in absence (CD19 CAR alone, CD19 CAR+constitutive-mbIL-15 and CD19 CAR+RTS-mbIL-15) or presence (CD19 CAR+RTS-mbIL-15) of veledimex for 2-3 days. Cell lysates were prepared for western blot analysis. Approximately 10 μg lysate/lane of NuPAGE 10% Bis-Tris gel was loaded. Proteins were transferred from gel to a polyvinylidene fluoride (PVDF) membranes using the iBlot® (Life Technologies) semi-dry transfer apparatus. Membrane was blocked using a 5% (w/v) powdered milk solution in a PBS+Tween-20 (PBST; 1×PBS+0.05% Tween-20) solution stained with goat anti-human IL-15 (R&D Systems) primary antibody and rabbit anti-goat IgG HRP (KPL Laboratories) secondary antibody. […]
Image of the western blot were captured on the FluorChem™ E Imager (ProteinSimple, San Jose, Calif.) system using the Digital Darkroom software and AlphaView® software (ProteinSimple). […] In CD19 CAR+constitutive-mbIL-15 positive control, expression of mbIL-15 was detected.

[2] = tested on: gene switch controlled mbIL-15 expression in CD19-specific CAR T cells; test: Flow cytometry of mbIL-15 expression, veledimex ON-OFF-ON, SB gene switch CD19 CAR-T cells; type: cell-based, human
Method: Various DNA plasmids expressing a SB transposon system, i.e. SB11, membrane bound IL-15 (mbIL-15), and chimeric antigen receptor (CAR), were transfected to peripheral blood mononuclear cells (PBMC) via nucleofection to redirect T cell specificity (FIG. 1).
On day 0, 20 million PBMC were resuspended in 100 μL of Amaxa Human T cell Nucleofector solution (Cat. no. VPA-1002; Lonza, Basel, Switzerland) mixed with a total of 15 μg of transposons and 5 μg of transposase (SB11) and electroporated.
The following day (day 1) cells were counted, and CAR expression was measured by flow cytometry. CAR T Cells were stimulated with either γ-irradiated (100 Gy) or mitomycin C treated AaPCs at a 1:1 ratio. The AaPC cells used were K562-AaPC expressing CD19 antigen. Cultures were supplemented with IL-21 (30 ng/ml) only for the first round of stimulation and subsequently with recombinant human IL-2 (50 IU/ml) and IL-21 (30 ng/ml) (Pepro Tech) for remaining stimulations. T cell cultures were phenotyped at the end of each stimulation cycle, which typically lasted 7 days. The cultures were phenotyped for CAR expression by multi-parameter flow cytometry utilizing either Protein L or anti-idiotype antibody that recognizes CD19-specific CAR. Cultures were also closely monitored for the outgrowth of NK cells (defined as CD3negCD56+ population) and were removed from the CAR T cell cultures when the percentage exceeded 10% of total cell populations using magnetic beads for specific for CD56 (Stem Cell Technologies and/or Miltenyi Biotec), according to the manufacturer's instructions.
CD19-specific T cells were generated from mononuclear cells (MNC) derived from PB or UCB using SB transposition to introduce the CAR followed by addition of AaPC to numerically expand the T cells in a CAR-dependent manner.
For flow cytometry analysis to assess expression of various markers and gene(s) of interest, cells were gently resuspended and cell number, and viability were measured using Trypan blue exclusion method with the Countess instrument. Cell diameter size was also recorded. 5×10^5 cells for each for the samples were harvested at 330×g for 4 min at 10° C. for antibody staining. Harvested cells were incubated on ice for at least 15 min with 10% human AB serum in HBSS. Antibody cocktails containing fluorescently conjugated antibodies included one or more of antibodies specific to CD4 (Clone RPA-T4), CD8 (Clone SK1), CD3 (Clone UCHT1), CD56, CD19-specific CAR (anti-idiotype antibody), IL-15, and IL-15Rα, in HBSS+0.1% BSA+2 mM EDTA. The prepared antibody cocktails and associated fluorescence minus one/isotype control were added to stain the cell samples, and then the samples were incubated on ice for 30 min. The samples were then washed then with FACS buffer (HBSS+0.5% BSA+2 mM EDTA) and stained with Fixable Viability Dye (eBiosciences) for 30 min on ice. Cells were washed with FACS buffer and then fixed with a 4% paraformaldehyde solution (BD Cytofix; BD Biosciences). All samples were run on a LSR II flow cytometer, a Fortessa X-20 flow cytometer (BD Biosciences) or iQue Screener Plus (Intellicyt) and data was analyzed using FlowJo V10 (TreeStar, Ashland, Oreg.) or iQue Screener software.
For induction of expression using ligand (veledimex), AaPC stimulated CAR-T cells were harvested at 1×10^6 cells/ml. Either veledimex or DMSO (to keep DMSO concentration constant in both cultures) was added to the cultures. Veledimex was used at a concentration of 20 nM, 50 nM, 100 nM or as described. Cells were then cultured at 37° C. in presence of veledimex or DMSO for 2-3 days. After 2-3 days in culture, 5×10^5 cells for each for the samples were harvested at 330×g for 4 min at 10° C. for antibody staining. Harvested cells were incubated on ice for at least 15 min with 10% human AB serum in HBSS. […]

CCC[C@@H](N(NC(=O)c1cccc(OC)c1CC)C(=O)c1cc(C)cc(C)c1)C(C)(C)C [veledimex, N-[(1R)-1-(1,1-dimethylethyl)butyl]-N′-(2-ethyl-3-methoxybenzoyl)-3,5-dimethylbenzohydrazide]
mbIL-15 expression by western blot [1]: strong expression of mbIL-15 | mbIL-15 expression versus veledimex concentration ([2]; 2 day incubation at 100, 25, 6.25, 1.56, 0.4 and 0 nM, gated FSC/SSC/LIVE/CD3+): dose response | expression of mbIL-15 post ligand addition ([2]; day 29 post nucleofection, gated on CD19-specific CAR positive populations): turned on | expression of mbIL-15 post ligand withdrawal ([2]; day 35 post nucleofection, gated on CD19-specific CAR positive populations): turned off | expression of mbIL-15 after re-introduction of ligand ([2]; day 40 post nucleofection, gated on CD19-specific CAR positive populations): maintained | expression of mbIL-15 after re-introduction of ligand ([2]; day 48 post nucleofection, gated on CD19-specific CAR positive populations): continuously maintained | expression of mbIL-15 after re-introduction of ligand ([2]; day 50 post nucleofection, gated on CD19-specific CAR positive populations): continuously maintained
